From US20240246964A1 (Arbutus Biopharma Corporation, priority 2021, published 2024) come the findings set out here.

The structures appear in SMILES notation. pEC50: −log10 of the molar value.

Chain of human PD-L1 (Q9NZQ7 19-290): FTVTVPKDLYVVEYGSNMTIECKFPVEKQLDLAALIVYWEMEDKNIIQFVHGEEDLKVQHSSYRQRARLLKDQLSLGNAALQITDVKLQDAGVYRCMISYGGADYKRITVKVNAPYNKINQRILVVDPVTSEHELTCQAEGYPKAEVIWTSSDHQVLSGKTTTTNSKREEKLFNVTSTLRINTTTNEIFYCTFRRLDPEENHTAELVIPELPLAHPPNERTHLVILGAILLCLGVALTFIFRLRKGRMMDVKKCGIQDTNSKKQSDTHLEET

This test addresses human PD-L1 (Homo sapiens (Human), UniProt Q9NZQ7). Briefly: T cell activation luciferase reporter cell culture system (T Cell Activation Assay). The format is cell-based. As to conditions: luciferase reporter assay; PD-L1 aAPC/CHO-K1 cells with PD-1 effector Jurkat T cells. (In general: Reporter assays use an easily measured gene product as a stand-in for the process of interest.)
Broadly, the pEC50 is the EC50 on a negative log10 scale, so that one unit is a factor of ten. Low values mean a large EC50, high ones a small EC50. `COc1cc(-c2nccc(-c3cccc(-c4ccc(CN(C)CCO)c(OC)n4)c3Cl)c2Cl)ccc1CN(C)CCO` [Cmpd 138, 2-(((6-(2-chloro-3-(3-chloro-2-(4-(((2-hydroxyethyl)(methyl)amino)methyl)-3-methoxyphenyl)pyridin-4-yl)phenyl)-2-methoxypyridin-3-yl)methyl)(methyl)amino)ethan-1-ol] showed a negative logarithm of the EC50 (pEC50) of 5.29.
With `COc1cc(-c2nccc(-c3cccc(-c4ccc5c(OC)c(CNCCO)cc(Cl)c5n4)c3Cl)c2Cl)ccc1CNC[C@@H]1CCC(=O)N1` [Example 238, (S)-5-(((4-(3-chloro-4-(2-chloro-3-(8-chloro-6-(((2-hydroxyethyl)amino)methyl)-5-methoxyquinolin-2-yl)phenyl)pyridin-2-yl)-2-methoxybenzyl)amino)methyl)pyrrolidin-2-one] the figure was 6.89; with `COc1nc(-c2ccnc(-c3cccc4c3CC[C@@H]4Oc3nc(OC)c(CNC4CCOCC4)cc3C(F)(F)F)c2Cl)ccc1CNC[C@@H]1CCC(=O)N1` [Example 608, (S)-5-((((3′-Chloro-6-methoxy-2′-((S)-1-((6-methoxy-5-(((tetrahydro-2H-pyran-4-yl)amino)methyl)-3-(trifluoromethyl)pyridin-2-yl)oxy)-2,3-dihydro-1H-inden-4-yl)-[2,4′-bipyridin]-5-yl)methyl)amino)methyl)pyrrolidin-2-one], 7.65.
With `COc1nc(-c2cccc(-c3ccnc(-c4ccc(CNC5CCN(C)C(=O)C5)c(OC(F)F)c4)c3Cl)c2Cl)ccc1CNC1CCN(C)C(=O)C1` (racemic) [Example 619, 4-(((6-(2-Chloro-3-(3-chloro-2-(3-(difluoromethoxy)-4-(((1-methyl-2-oxopiperidin-4-yl)amino)methyl)phenyl)pyridin-4-yl)phenyl)-2-methoxypyridin-3-yl)methyl)amino)-1-methylpiperidin-2-one] the figure was 7.17; with `COc1cc(-c2nccc(-c3cccc(-c4ccc(CNCC5CCOCC5)c(OC)n4)c3Cl)c2Cl)ccc1CNCC1CCOCC1` [Example 330, 1-(6-(2-Chloro-3-(3-chloro-2-(3-methoxy-4-((((tetrahydro-2H-pyran-4-yl)methyl)amino)methyl)phenyl)pyridin-4-yl)phenyl)-2-methoxypyridin-3-yl)-N-((tetrahydro-2H-pyran-4-yl)methyl)methanamine], 7.13; with `COc1cc(-c2nccc(-c3cccc(-c4ccc(CNC[C@@H]5CCC(=O)N5)c(OC)n4)c3Cl)c2Cl)ccc1CNC1CCS(=O)(=O)CC1` [Cmpd 126, (S)-5-((((6-(2-chloro-3-(3-chloro-2-(4-(((1,1-dioxidotetrahydro-2H-thiopyran-4-yl)amino)methyl)-3-methoxyphenyl)pyridin-4-yl)phenyl)-2-methoxypyridin-3-yl)methyl)amino)methyl)pyrrolidin-2-one], 7.43.
For `COc1cc(-c2nccc(-c3cccc(-c4ccc(CNC5CCN(C(C)=O)CC5)c(OC)n4)c3C#N)c2Cl)ccc1CNC1CCN(C(C)=O)CC1` [Cmpd 615, 2-(2-(4-(((1-acetylpiperidin-4-yl)amino)methyl)-3-methoxyphenyl)-3-chloropyridin-4-yl)-6-(5-(((1-acetylpiperidin-4-yl)amino)methyl)-6-methoxypyridin-2-yl)benzonitrile], the pEC50 was 6.57.
With `COc1cc(-c2nccc(-c3cccc(-c4ccc(CNCCO)c(OC)n4)c3C(F)(F)F)c2Cl)ccc1CNCCO` [Example 612, 2-(((6-(3-(3-Chloro-2-(4-(((2-hydroxyethyl)amino)methyl)-3-methoxyphenyl)pyridin-4-yl)-2-(trifluoromethyl)phenyl)-2-methoxypyridin-3-yl)methyl)amino)ethan-1-ol] the figure was not above 5.00.
To `COc1cc(-c2nccc(-c3cccc(-c4ccc(CN5CC6(CNC(=O)C6)C5)c(OC)n4)c3Cl)c2Cl)ccc1CNC1CCOCC1` [Example 495, 2-((6-(2-Chloro-3-(3-chloro-2-(3-methoxy-4-(((tetrahydro-2H-pyran-4-yl)amino)methyl)phenyl)pyridin-4-yl)phenyl)-2-methoxypyridin-3-yl)methyl)-2,6-diazaspiro[3.4]octan-7-one] belongs 7.64; to `COc1cc(-c2ncnc(-c3cccc(-c4ccc(CNC[C@@H]5CCC(=O)N5)c(OC)n4)c3Cl)c2Cl)ccc1CN1CC2(CNC(=O)C2)C1` [Example 742, (S)-2-(4-(5-Chloro-6-(2-chloro-3-(6-methoxy-5-((((5-oxopyrrolidin-2-yl)methyl)amino)methyl)pyridin-2-yl)phenyl)pyrimidin-4-yl)-2-methoxybenzyl)-2,6-diazaspiro[3.4]octan-7-one], 7.54.
Regarding `COc1cc(-c2nccc(-c3cccc(NC(=O)c4ccc(CNC[C@@H]5CCC(=O)N5)cn4)c3C)c2Cl)ccc1CNC[C@@H]1CCC(=O)N1` [Example 647, N-(3-(3-Chloro-2-(3-methoxy-4-(((((S)-5-oxopyrrolidin-2-yl)methyl)amino)methyl)phenyl)pyridin-4-yl)-2-methylphenyl)-5-(((((S)-5-oxopyrrolidin-2-yl)methyl)amino)methyl)picolinamide], the pEC50 is 7.18.
With `COc1nc(-c2cccc(-c3ccnc(-c4cc(OC)c5nc(CN6CCOCC6)cn5c4)c3Cl)c2Cl)ccc1CNC1CCN(C(C)=O)CC1` [Example 475, 1-(4-(((6-(2-Chloro-3-(3-chloro-2-(8-methoxy-2-(morpholinomethyl)imidazo[1,2-a]pyridin-6-yl)pyridin-4-yl)phenyl)-2-methoxypyridin-3-yl)methyl)amino)piperidin-1-yl)ethan-1-one] the figure was 5.42; with `COc1cc(-c2nccc(-c3cccc(-c4ccc(CNC5CCN(S(C)(=O)=O)CC5)c(OC)n4)c3Cl)c2Cl)ccc1CNC1CCN(S(C)(=O)=O)CC1` [Example 372, N-((6-(2-Chloro-3-(3-chloro-2-(3-methoxy-4-(((1-(methylsulfonyl)piperidin-4-yl)amino)methyl)phenyl)pyridin-4-yl)phenyl)-2-methoxypyridin-3-yl)methyl)-1-(methylsulfonyl)piperidin-4-amine], 7.63; with `COc1cc(-c2nccc(-c3cccc(-c4ccc5c(CNC6CCN(C(C)=O)CC6)cn(C)c5n4)c3Cl)c2Cl)ccc1CNC[C@@H]1CCC(=O)N1` [Cmpd 57, (S)-5-(((4-(4-(3-(3-(((1-acetylpiperidin-4-yl)amino)methyl)-1-methyl-1H-pyrrolo[2,3-b]pyridin-6-yl)-2-chlorophenyl)-3-chloropyridin-2-yl)-2-methoxybenzyl)amino)methyl)pyrrolidin-2-one], 7.70.
With `COc1cc(-c2nccc(-c3cccc(-c4ccc(CNC5CCS(=O)(=O)CC5)c(OC)n4)c3Cl)c2Cl)cc(F)c1CNC1CCS(=O)(=O)CC1` [Example 349, 4-(((6-(2-Chloro-3-(3-chloro-2-(4-(((1,1-dioxidotetrahydro-2H-thiopyran-4-yl)amino)methyl)-3-fluoro-5-methoxyphenyl)pyridin-4-yl)phenyl)-2-methoxypyridin-3-yl)methyl)amino)tetrahydro-2H-thiopyran 1,1-dioxide] the figure was 7.42.
With `COc1cc(-c2nccc(-c3cccc(-c4ccc5c(CNC[C@@H]6CCO6)cn(C)c5n4)c3Cl)c2Cl)ccc1CNC[C@@H]1CCC(=O)N1` [Cmpd 58, (S)-5-(((4-(3-chloro-4-(2-chloro-3-(1-methyl-3-(((((S)-oxetan-2-yl)methyl)amino)methyl)-1H-pyrrolo[2,3-b]pyridin-6-yl)phenyl)pyridin-2-yl)-2-methoxybenzyl)amino)methyl)pyrrolidin-2-one] the figure was 7.43; with `COc1cc(-c2nccc(-c3cccc(-c4ccc(CN5CC6(CNC(=O)C6)C5)c(OC)n4)c3C(F)(F)F)c2Cl)ccc1CN1CC2(CNC(=O)C2)C1` [Example 576, 2-((6-(3-(3-chloro-2-(3-methoxy-4-((7-oxo-2,6-diazaspiro[3.4]octan-2-yl)methyl)phenyl)pyridin-4-yl)-2-(trifluoromethyl)phenyl)-2-methoxypyridin-3-yl)methyl)-2,6-diazaspiro[3.4]octan-7-one], not above 5.00.
In the case of `COc1cc(-c2nccc(-c3cccc(-c4ccc(CN5CC6(CCC(=O)N6)C5)c(OC)n4)c3Cl)c2Cl)ccc1CN1CCC(NC(C)=O)CC1` [Example 401, N-(1-(4-(3-Chloro-4-(2-chloro-3-(6-methoxy-5-((6-oxo-2,5-diazaspiro[3.4]-octan-2-yl)methyl)pyridin-2-yl)phenyl)pyridin-2-yl)-2-methoxybenzyl)piperidin-4-yl)acetamide], the pEC50 was 7.69.
Molecule `COc1nc(-c2cccc(-c3ccnc(-c4cnc5c(CN6CC7(CNC(=O)C7)C6)cn(C)c5c4)c3Cl)c2Cl)ccc1CNC[C@@H]1CCC(=O)N1` [Example 378, (S)-2-((6-(3-Chloro-4-(2-chloro-3-(6-methoxy-5-((((5-oxopyrrolidin-2-yl)methyl)amino)methyl)pyridin-2-yl)phenyl)pyridin-2-yl)-1-methyl-1H-pyrrolo[3,2-b]pyridin-3-yl)methyl)-2,6-diazaspiro[3.4]octan-7-one] had a pEC50 of 7.13.
With `COc1nc(-c2cccc(-c3ccnc(-c4cc(OC)c5nc(CN6CC7(CNC(=O)C7)C6)nn5c4)c3Cl)c2Cl)ccc1CNC1CCN(C(C)=O)CC1` [Example 659, 2-((6-(4-(3-(5-(((1-Acetylpiperidin-4-yl)amino)methyl)-6-methoxypyridin-2-yl)-2-chlorophenyl)-3-chloropyridin-2-yl)-8-methoxy-[1,2,4]triazolo[1,5-a]pyridin-2-yl)methyl)-2,6-diazaspiro[3.4]octan-7-one], the pEC50 was 7.09.
With `COc1cc(-c2nccc(-c3cccc(-c4ccc(CNC5CCOCC5)c(OC)n4)c3Cl)c2Cl)ccc1CNC1CCN(C(C)=O)CC1` [Example 391, 1-(4-((4-(3-chloro-4-(2-chloro-3-(6-methoxy-5-(((tetrahydro-2H-pyran-4-yl)amino)methyl)pyridin-2-yl)phenyl)pyridin-2-yl)-2-methoxybenzyl)amino)piperidin-1-yl)ethan-1-one] the figure was 7.75.
